Laboratory results from patent publication US8735410B2, “Quinazoline derivatives as tyrosine kinase inhibitors” (AstraZeneca AB, priority 2005, dated 2014).

Test system: KB cells (human tumour cell line ATCC CCL-17)
Experiment: EGFR driven KB cell proliferation assay (Test b)
Type: cell-based
Settings: geometric mean of n tests, EGF driven proliferation of KB cells
Method: b) EGFR Driven KB Cell Proliferation Assay
This assay measures the ability of a test compound to inhibit the proliferation of KB cells (human tumour cell line ATCC CCL-17).
KB cells were cultured in Dulbecco's modified Eagle's medium (DMEM) containing 10% foetal calf serum, 2 mM glutamine and 1% non-essential amino acids at 37° C. in a 7.5% CO2 air incubator. Cells were harvested from the stock flasks using Trypsin/ethylaminediaminetetraacetic acid (EDTA). Cell density was measured using a haemocytometer and viability was calculated using trypan blue solution before being seeded at a density of 1.25×10^3 cells per well of a 96 well plate in DMEM containing 2.5% charcoal stripped serum, 1 mM glutamine and 1% non-essential amino acids at 37° C. in 7.5% CO2 and allowed to settle for 4 hours.
Following adhesion to the plate, the cells are treated with or without EGF (final concentration of 1 ng/ml) and with or without compound at a range of concentrations in dimethylsulfoxide (DMSO) (0.1% final) before incubation for 4 days. Following the incubation period, cell numbers were determined by addition of 50 μl of 3-(4,5-Dimethylthiazol-2-yl)-2,5-diphenyltetrazolium bromide (MTT) (stock 5 mg/ml) for 2 hours. MTT solution was then tipped off, the plate gently tapped dry and the cells dissolved upon the addition of 100 μl of DMSO.
Absorbance of the solubilised cells was read at 540 nm using a Molecular Devices ThermoMax microplate reader. Inhibition of proliferation was expressed as an IC50 value. This was determined by calculation of the concentration of compound that was required to give 50% inhibition of EGF driven proliferation. The range of proliferation was calculated from the positive (vehicle plus EGF) and negative (vehicle minus EGF) control values. The IC50 value obtained from basal cell growth gives a measure of selectivity.

IC50 [nM] | SMILES
56 | COc1cc2ncnc(Nc3cccc(Cl)c3F)c2cc1O[C@H]1CCN(C)[C@H](C(N)=O)C1 [Example 1, (2S,4S)-4-({4-[(3-chloro-2-fluorophenyl)amino]-7-methoxyquinazolin-6-yl}oxy)-1-methylpiperidine-2-carboxamide]
23 | CNC(=O)[C@H]1C[C@H](Oc2cc3c(Nc4cccc(Cl)c4F)ncnc3cc2OC)CCN1C [Example 3, (2R,4R)-4-({4-[(3-chloro-2-fluorophenyl)amino]-7-methoxyquinazolin-6-yl}oxy)-N,1-dimethylpiperidine-2-carboxamide]
61 | CNC(=O)[C@@H]1C[C@@H](Oc2cc3c(Nc4cccc(Cl)c4F)ncnc3cc2OC)CCN1C [Example 2, (2S,4S)-4-({4-[(3-chloro-2-fluorophenyl)amino]-7-methoxyquinazolin-6-yl}oxy)-N,1-dimethylpiperidine-2-carboxamide]
